Measurements published in PMC12529750 (Emerging Microbes & Infections, 2025).

Key:
Type in all cases: cell-based
[1] = test system: SARS-CoV-2 ENS-EV1 (M49L and S144A in Mpro)
[2] = test system: SARS-CoV-2 ENS-EV2 (M49L, S144A and T169I in Mpro)
[3] = test system: SARS-CoV-2 M49L variant
[4] = test system: SARS-CoV-2 S144A variant
[5] = test system: SARS-CoV-2 M49L+S144A variant
[6] = test system: SARS-CoV-2 M49L+E166A variant
[7] = test system: SARS-CoV-2 T169I variant
[8] = test system: SARS-CoV-2 M49L+S144A+T169I variant
[9] = test system: SARS-CoV-2 L50F+E166V variant
[10] = test system: SARS-CoV-2 NIR-EV L50F+E166V
[11] = test system: SARS-CoV-2 E166G variant
[12] = test system: SARS-CoV-2 E166H variant
[13] = test system: SARS-CoV-2 E166Q variant
[14] = test system: SARS-CoV-2 E166S variant
[15] = test system: SARS-CoV-2 replicon with M49L + S144A + T169I
[16] = test system: SARS-CoV-2 replicon with M49L + E166A
[17] = test system: SARS-CoV-2 E166L variant
[18] = test system: SARS-CoV-2 replicon with E166A

SMILES | Fold resistance, highest in VeroE6 or A549-hACE2 cells [1] | Fold resistance, highest in VeroE6 or A549-hACE2 cells [2] | Fold resistance, highest in VeroE6 or A549-hACE2 cells [3] | Fold resistance, highest in VeroE6 or A549-hACE2 cells [4] | Fold resistance, highest in VeroE6 or A549-hACE2 cells [5] | Fold resistance, highest in VeroE6 or A549-hACE2 cells [6] | Fold resistance, highest in VeroE6 or A549-hACE2 cells [7] | Fold resistance, highest in VeroE6 or A549-hACE2 cells [8] | Fold resistance, highest in VeroE6 or A549-hACE2 cells [9] | Fold resistance, highest in VeroE6 or A549-hACE2 cells [10] | Fold resistance, highest in VeroE6 or A549-hACE2 cells [11] | Fold resistance, highest in VeroE6 or A549-hACE2 cells [12] | Fold resistance, highest in VeroE6 or A549-hACE2 cells [13] | Fold resistance, highest in VeroE6 or A549-hACE2 cells [14] | Resistance of replicon (% RLU in treated cultures) [15] | Resistance of replicon (% RLU in treated cultures) [16] | Fold resistance, highest in VeroE6 or A549-hACE2 cells [17] | Resistance of replicon (% RLU in treated cultures) [18]
Cn1cnc(Cn2c(=O)[nH]/c(=N\c3cc4cn(C)nc4cc3Cl)n(Cc3cc(F)c(F)cc3F)c2=O)n1 [ENS, Ensitrelvir] | up to 110 fold | up to 280 fold | up to 71 fold | up to 21 fold | up to 290 fold | up to 180 fold | up to 4.8 fold | up to 660 fold | up to 14 fold | up to 36 fold | < 5 fold | > 5 fold | < 5 fold | > 5 fold | highest resistance | lower resistance |  | 
CC(C)(C)[C@H](NC(=O)C(F)(F)F)C(=O)N1C[C@H]2[C@@H]([C@H]1C(=O)N[C@H](C#N)C[C@@H]1CCNC1=O)C2(C)C [NIR, Nirmatrelvir] | < 10 fold | < 10 fold |  |  |  |  |  |  |  |  | < 5 fold |  | < 5 fold | > 5 fold |  | relatively high resistance | > 5 fold | relatively high resistance
